Experimental data: the NIST ThermoML archive (doi:10.1021/acs.jced.8b00666)
± gives the expanded uncertainty stated by the source.

Conditions: Crystal; Heating/Cooling curves

Compound	Normal melting temperature
C1CCCCC1 [cyclohexane]	6.80 ± 0.2 °C
O.O=P(O)(O)O.O=P(O)(O)O [phosphoric acid hemihydrate]	29.2 ± 0.21 °C
